# From PubChem BioAssay (NCI)
#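 Five concentrations, 48 hours, 96-well plates. Definition used: TGI = concentration required for complete inhibition of growth.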
# Tests used:
# Assay in all cases: DTP human tumour cell line panel, 48 h
# [1] = system: SR leukemia
# [2] = system: DU-145 prostate
# [3] = system: TK-10 renal
# [4] = system: SK-MEL-28 melanoma
# [5] = system: SF-539 CNS
# [6] = system: 786-0 renal
# [7] = system: HT29 colon
# [8] = system: OVCAR-8 ovarian
# [9] = system: CAKI-1 renal
# [10] = system: BT-549 breast
# [11] = system: MDA-MB-435
# [12] = system: RXF 393 renal
# [13] = system: NCI-H23 lung
# [14] = system: MALME-3M melanoma
# [15] = system: EKVX NSCLC
# [16] = system: HCC-2998 colon
# [17] = system: SK-MEL-5 melanoma
# [18] = system: RPMI-8226 leukemia
# [19] = system: ACHN renal
# [20] = system: CCRF-CEM leukemia
# [21] = system: HL-60(TB) leukemia
# [22] = system: SN12C renal
# [23] = system: OVCAR-5 ovarian
# [24] = system: NCI-H522 lung
# [25] = system: U251 CNS
# [26] = system: HOP-62 NSCLC
# [27] = system: MOLT-4 leukemia
# [28] = system: HS 578T breast
# [29] = system: OVCAR-4 ovarian
# [30] = system: OVCAR-3 ovarian
# [31] = system: PC-3 prostate
# [32] = system: SNB-19 CNS
# [33] = system: COLO 205 colon
# [34] = system: KM12 colon
# [35] = system: IGROV1 ovarian
# [36] = system: NCI-H226 lung
# [37] = system: MDA-N
# [38] = system: UACC-62 melanoma
# [39] = system: SNB-75 CNS
# [40] = system: SF-268 CNS
# [41] = system: A549 NSCLC
# [42] = system: NCI-H460 lung
# [43] = system: SF-295 CNS
# [44] = system: UACC-257 melanoma
# [45] = system: HCT-15 colon
# [46] = system: HOP-92 NSCLC
# [47] = system: SK-MEL-2 melanoma
# [48] = system: T-47D breast
# [49] = system: SW-620 colon
# [50] = system: HCT-116 colon
# [51] = system: MDA-MB-231 breast
# [52] = system: K-562 leukemia
# [53] = system: LOX IMVI melanoma
# [54] = system: A498 renal
# [55] = system: UO-31 renal
# [56] = system: NCI/ADR-RES ovarian
# [57] = system: SK-OV-3 ovarian
# [58] = system: MCF7 breast
# [59] = system: M14 melanoma
compound,measurement,setting,value
C[C@]12C=CC(=O)C=C1CC[C@@H]1[C@@H]2C(=O)C[C@@]2(C)[C@H]1CC[C@]2(O)C(=O)CO,TGI,[1],> 100 µM
same,TGI,[2],> 100 µM
same,TGI,[3],> 100 µM
same,TGI,[4],> 100 µM
same,TGI,[5],> 100 µM
same,TGI,[6],> 100 µM
same,TGI,[7],> 100 µM
same,TGI,[8],> 100 µM
same,TGI,[9],> 100 µM
same,TGI,[10],> 100 µM
same,TGI,[11],> 100 µM
same,TGI,[12],> 100 µM
same,TGI,[13],> 100 µM
same,TGI,[14],> 100 µM
same,TGI,[15],> 100 µM
same,TGI,[16],> 100 µM
same,TGI,[17],> 100 µM
same,TGI,[18],> 100 µM
same,TGI,[19],> 100 µM
same,TGI,[20],> 100 µM
same,TGI,[21],> 100 µM
same,TGI,[22],> 100 µM
same,TGI,[23],> 100 µM
same,TGI,[24],> 100 µM
same,TGI,[25],> 100 µM
same,TGI,[26],> 100 µM
same,TGI,[27],> 100 µM
same,TGI,[28],> 100 µM
same,TGI,[29],> 100 µM
same,TGI,[30],> 100 µM
same,TGI,[31],> 100 µM
same,TGI,[32],> 100 µM
same,TGI,[33],> 100 µM
same,TGI,[34],> 100 µM
same,TGI,[35],> 100 µM
same,TGI,[36],> 100 µM
same,TGI,[37],> 100 µM
same,TGI,[38],> 100 µM
same,TGI,[39],> 100 µM
same,TGI,[40],> 100 µM
same,TGI,[41],> 100 µM
same,TGI,[42],> 100 µM
same,TGI,[43],> 100 µM
same,TGI,[44],> 100 µM
same,TGI,[45],> 100 µM
same,TGI,[46],> 100 µM
same,TGI,[47],> 100 µM
same,TGI,[48],> 100 µM
same,TGI,[49],> 100 µM
same,TGI,[50],> 100 µM
same,TGI,[51],> 100 µM
same,TGI,[52],> 100 µM
same,TGI,[53],> 100 µM
same,TGI,[54],> 100 µM
same,TGI,[55],> 100 µM
same,TGI,[56],> 100 µM
same,TGI,[57],> 100 µM
same,TGI,[58],> 100 µM
same,TGI,[59],> 100 µM
CC1=CCC[C@@H]2[C@@](C)(Cc3cc(O)ccc3O)[C@H](C)CC[C@@]12C,TGI,[1],12.6 µM
same,TGI,[2],27.1 µM
same,TGI,[3],22.2 µM
same,TGI,[4],25.5 µM
same,TGI,[5],18.4 µM
same,TGI,[6],21.7 µM
same,TGI,[7],42.7 µM
same,TGI,[8],16.7 µM
same,TGI,[9],25.7 µM
same,TGI,[10],13.1 µM
same,TGI,[11],19.5 µM
same,TGI,[12],17.1 µM
same,TGI,[13],14.1 µM
same,TGI,[14],33.1 µM
same,TGI,[15],20.3 µM
same,TGI,[16],22.5 µM
same,TGI,[17],19.1 µM
same,TGI,[18],21.7 µM
same,TGI,[19],18 µM
same,TGI,[20],15.1 µM
same,TGI,[21],6.6 µM
same,TGI,[22],27 µM
same,TGI,[23],28.3 µM
same,TGI,[24],14.1 µM
same,TGI,[25],15.9 µM
same,TGI,[26],22.1 µM
same,TGI,[27],15 µM
same,TGI,[28],20.6 µM
same,TGI,[29],25.7 µM
same,TGI,[30],15.3 µM
same,TGI,[31],14.1 µM
same,TGI,[32],21.5 µM
same,TGI,[33],36.5 µM
same,TGI,[34],16.4 µM
same,TGI,[35],18.2 µM
same,TGI,[36],39.3 µM
same,TGI,[37],17 µM
same,TGI,[38],25.1 µM
same,TGI,[39],17.9 µM
same,TGI,[40],24 µM
same,TGI,[41],17.6 µM
same,TGI,[42],22.4 µM
same,TGI,[43],20 µM
same,TGI,[44],26.2 µM
same,TGI,[45],16 µM
same,TGI,[46],15.2 µM
same,TGI,[47],27.9 µM
same,TGI,[48],20.1 µM
same,TGI,[49],25.2 µM
same,TGI,[50],18.8 µM
same,TGI,[51],30.2 µM
same,TGI,[52],36 µM
same,TGI,[53],17.7 µM
same,TGI,[54],32.7 µM
same,TGI,[55],12.8 µM
same,TGI,[56],18.9 µM
same,TGI,[57],26 µM
same,TGI,[58],18.7 µM
same,TGI,[59],15.7 µM
COc1ccc2c(=O)c3cc([N+](=O)[O-])ccc3n(C)c2c1,TGI,[1],> 100 µM
same,TGI,[2],> 100 µM
same,TGI,[3],> 100 µM
same,TGI,[4],> 100 µM
same,TGI,[5],> 100 µM
same,TGI,[6],> 100 µM
same,TGI,[8],> 100 µM
same,TGI,[9],> 100 µM
same,TGI,[10],> 100 µM
same,TGI,[11],> 100 µM
same,TGI,[12],> 100 µM
same,TGI,[14],> 100 µM
same,TGI,[15],> 100 µM
same,TGI,[16],> 100 µM
same,TGI,[17],> 100 µM
same,TGI,[18],> 100 µM
same,TGI,[19],> 100 µM
same,TGI,[20],> 100 µM
same,TGI,[21],> 100 µM
same,TGI,[22],> 100 µM
same,TGI,[23],> 100 µM
same,TGI,[24],> 100 µM
same,TGI,[25],> 100 µM
same,TGI,[27],> 100 µM
same,TGI,[28],> 100 µM
same,TGI,[29],> 100 µM
same,TGI,[30],> 100 µM
same,TGI,[31],> 100 µM
same,TGI,[32],> 100 µM
same,TGI,[33],> 100 µM
same,TGI,[34],> 100 µM
same,TGI,[35],> 100 µM
same,TGI,[36],> 100 µM
same,TGI,[37],> 100 µM
same,TGI,[38],> 100 µM
same,TGI,[39],> 100 µM
same,TGI,[40],> 100 µM
same,TGI,[41],> 100 µM
same,TGI,[42],> 100 µM
same,TGI,[43],> 100 µM
same,TGI,[44],> 100 µM
same,TGI,[45],> 100 µM
same,TGI,[46],> 100 µM
same,TGI,[47],> 100 µM
same,TGI,[48],> 100 µM
same,TGI,[49],> 100 µM
same,TGI,[51],> 100 µM
same,TGI,[52],> 100 µM
same,TGI,[53],> 100 µM
same,TGI,[54],> 100 µM
same,TGI,[55],> 100 µM
same,TGI,[56],> 100 µM
same,TGI,[58],> 100 µM
same,TGI,[59],> 100 µM
